Measured values: publication PMC13181001 (Communications Medicine, 2026)
Like-named read-outs stand apart in the source and are kept apart here.

Assays:
[1] = biological target: recombinant wild-type and mutated EGFR; assay: Off-chip mobility shift assay (MSA) at ATP concentrations near Km; type: biochemical, human; conditions: ATP concentrations near the Km values for ATP in each recombinant EGFR
Procedure: The reaction mixtures and test compounds dissolved in dimethylsulfoxide (DMSO) were mixed and incubated for 1 hour at room temperature. The reaction was terminated by adding the Termination Buffer of QuickScout Screening Assist MSA (Carna Biosciences). The reaction mixture was applied to a LabChip system (PerkinElmer), and the product (P) and substrate (S) peptide peaks were separated and quantified. The kinase reaction was evaluated by calculating the product ratio from the peak heights of the P and S peptides (P/(P + S)). […] IC50 values were calculated from the concentration vs %inhibition curves by fitting to a four-parameter logistic curve using Microsoft Excel 2013 with the Solver add-in software.
Supplementary Fig 1. Chemical structure of EGFR-TKIs in the series of pyrrolopyrimidine-quinoline chemical core structure. The chemical structures of TAS3351 (a), TAS3351 analog, […]
the pyrrolopyrimidine-quinoline chemical core structure. Red-highlighted parts of the chemical structures indicate the pyrrolopyrimidine-quinoline. […]
inhibition was measured via Off-chip Mobility Shift Assay (MSA) using recombinant wild-type and mutated EGFR in the ATP concentration relevant to Km values of each human recombinant EGFR. ATP concentrations in the assay in each recombinant EGFR are as follows: wild type, ex19del/T790M, and […]
indicate standard deviation (s.d.) from triplicates. […]

[2] = tested on: Ba/F3 cell EGFR (ex19del); assay: Ba/F3-EGFR cell viability assay (CellTiter-Glo); type: cell-based, murine; conditions: Mus musculus, BaF3, Mean
[3] = tested on: Ba/F3 cell EGFR (L858R/T790M/C797S); assay: Ba/F3-EGFR cell viability assay (CellTiter-Glo); type: cell-based, murine; conditions: Mus musculus, BaF3, Mean
[4] = tested on: A-431 (wild-type) xenograft; type: in vivo, mouse; conditions: at least at doses below 50 mg/kg; once-daily oral
[5] = tested on: pEGFR, pAkt, pErk1/2 in NCI-H1975 xenograft tumors; assay: Pharmacodynamic marker analysis (immunoblotting) in NCI-H1975 xenograft tumors; type: in vivo, mouse; conditions: for phosphorylation of EGFR, Akt, and Erk1/2 in tumor: 24 h
Procedure: Frozen tumor samples were homogenized in cold RIPA buffer (Thermo Fisher Scientific) supplemented with PhosSTOP (Merck KGaA) and cOmplete, Mini, EDTA-free Protease Inhibitor Cocktail (Merck KGaA) using Multi-beads Shocker (Yasui Kikai Corporation). The tumor protein extracts obtained via centrifugation of the supernatants were stored on ice until the assay. The protein concentration of the extracts was determined using BCA Protein Assay (Thermo Fisher Scientific), according to the manufacturer’s protocol. The protein concentration of the extracts was adjusted to 1 mg/mL using RIPA buffer and Lane Marker Reducing Sample Buffer (Thermo Fisher Scientific) to prepare SDS-PAGE samples; afterward, the samples were denatured by heating at 98 °C for 5 min. After cooling to room temperature, the extracts and samples were frozen until SDS-PAGE analysis. 5 μg/lane of each SDS-PAGE sample was subjected to SDS-PAGE analysis using 7.5% polyacrylamide gels (Bio-Rad Laboratories) and transferred to polyvinylidene difluoride (PVDF) membranes using a Trans-Blot Turbo Transfer System (Bio-Rad Laboratories). Membranes were blocked with the PVDF Blocking Reagent for Can Get Signal (TOYOBO). After blotting with primary antibodies, the membranes were incubated with horseradish peroxidase (HRP)-conjugated secondary antibodies. The antibodies were diluted in Can Get Signal Solution1/2 (TOYOBO) according to the manufacturer’s protocol. […] All antibodies were diluted to a concentration of 1:1000.

[6] = Assessment of brain penetrability in mice (plasma and brain PK); type: in vivo; conditions: BALB/cAJcl-nu/nu, mouse; for AUC(0-t): plasma, male nude mice, read-out: AUC0-24 hr Plasma; for Kp uu / Kp: male, oral; for Kp uu: brain, unbound brain AUC / unbound plasma AUC; for Kp: brain AUC0-24 hr / plasma AUC0-24 hr
[7] = tested on: NIH/3T3-EGFR (ex19del/T790M/C797S)-luc cells; assay: Intracranial tumor transplanted mouse allograft model; type: in vivo; conditions: 20 and 40 mg/kg; with statistical significance
255 kinases = assay: Kinome-wide selectivity, Off-chip Mobility Shift Assay; type: biochemical; conditions: 20 nmol/L
Procedure: However, the potential secondary effects of the pharmacological inhibition of these eight kinases, with IC50 values below that of the wild-type EGFR, remain to be elucidated.
Supplementary Fig 3. […] The […]
plasmon resonance (SPR) analysis with single-cycle kinetics. KD values were calculated via curve fitting with 1:1 binding model or steady-state affinity evaluation. Mean KD values and standard deviation (s.d.) obtained from three independent experiments are shown.
Supplementary Fig 4. Kinome-wide selectivity of TAS3351. […]
determination of the IC50 values. […]

[8] = Body weight evaluation in allograft and xenograft mouse models; type: in vivo; conditions: once-daily oral administration; NIH/3T3-EGFR allograft models (Fig. 5a–d)
[9] = tested on: EGFR harboring L718Q and L718V; assay: Inhibitory spectrum against other osimertinib-resistant mutations (author rebuttal); conditions: data not shown
[10] = tested on: P-gp and BCRP in Caco-2 cells
[11] = biological target: human recombinant EGFR Ex19del (Homo sapiens, UniProt P00533, DEL746-750); assay: EGFR biochemical kinetics assay (PhosphoSens Kinase Assay), Ki
[12] = biological target: human recombinant EGFR Ex19del/T790M (Homo sapiens, UniProt P00533, DEL746-750/T790M); assay: as above
[13] = biological target: human recombinant EGFR Ex19del/T790M/C797S (Homo sapiens, UniProt P00533, C797S/DEL746-750/T790M); assay: as above
[14] = biological target: human recombinant EGFR L858R (Homo sapiens, UniProt P00533, L858R); assay: as above
[15] = biological target: human recombinant EGFR L858R/T790M (Homo sapiens, UniProt P00533, L858R/T790M); assay: as above

IC50 values [1]: sub-nanomolar range
IC50 [2]: 2840 pM
IC50 [3]: 241000 pM
AUC(0-t) ([6]; 20 mg/kg single oral): 72.5 µM·h
AUC(0-t) ([6]; 40 mg/kg single oral): 202 µM·h
AUC(0-t) ([6]; 80 mg/kg single oral): 377 µM·h
Kp uu ([6]; 20 mg/kg): 0.68
Kp uu ([6]; 40 mg/kg): 1.08
Kp uu ([6]; 80 mg/kg): 1.47
Kp ([6]; 20 mg/kg): 0.32
Kp ([6]; 40 mg/kg): 0.51
Kp ([6]; 80 mg/kg): 0.69
P-gp or BCRP substrate [10]: not a P-gp or BCRP substrate
Ki [11]: 4.8 pM
Ki [12]: 6.49 pM
Ki [13]: 18 pM
Ki [14]: 259 pM
difference in the Ki values between ex19del and L858R mutations ([14]; L858R vs ex19del): over 50 fold
Ki [15]: 224 pM
Structure (SMILES): C#Cc1c(-c2cnc3ccccc3c2)c2c(N)ncnc2n1C12CCC(NC(=O)c3cnc(C)cn3)(CC1)C2 [TAS3351]
inhibition of xenograft growth [4]: did not demonstrate statistically significant inhibition of xenograft growth
phosphorylation of EGFR, Akt, and Erk1/2 in tumor ([5]; 40 mg/kg single oral): restored to nearly baseline
phosphorylation of EGFR, Akt, and Erk1/2 in tumor ([5]; 80 mg/kg single oral): partially inhibited
phosphorylation of EGFR, Akt, and Erk1/2 in tumor vs control ([5]; 40 and 80 mg/kg single oral, 1–8 h post-administration): significantly reduced
intracranial luciferase activity (total flux) vs vehicle [7]: reduced intracranial luciferase activity
number of kinases whose enzymatic activity was inhibited by over 50% (255 kinases): 26
body weight [8]: without apparent body weight loss
efficacy against EGFR harboring L718Q and L718V [9]: not effective
